Measurements reported in ChEMBL document CHEMBL1201862, “PubChem BioAssay data set” (2004).
The source made the active and inactive calls.

How the values were obtained:
[1] = alpha-synuclein stem-loop luciferase translation blockers – H4 neuroglioma cells, luminescence, confirmation (AID 1988); assay type: functional, cell-based
[2] = Luminescence Cell-Based Dose Response HTS to Identify Inhibitors of 5'UTR Stem-Loop Driven Prion Protein mRNA Translation in H4 Neuroglioblastoma Cells. [Related pubchem assays: 1827 (Project Summary), 1813 (Primary HTS)]; assay type: functional
BJ [3] = assay: cells; assay type: functional, cell-based; settings: Homo sapiens
BJ [4] = assay: growth inhibition of engineered Ras-driven BJ cells – cell-based, alamar blue fluorescence, cherrypicked samples, dose response (AID 2631); assay type: functional; settings: Homo sapiens;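 also: confirmatory dose-response assay in RAS-dependent BJ fibroblasts engineered with TERT, LT and ST, with cytotoxicity read by fluorescence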
cells = assay type: functional, cell-based
[5] = alpha-synuclein stem-loop translation blockers – luminescence, H4 neuroglioblastoma cells, dose confirmation, confirmation (AID 2454); assay type: functional, cell-based;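 also: H4 neuroglioblastoma cells carrying an alpha-synuclein 5'UTR luciferase reporter; potency for inhibition of the luciferase signal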
[6] = luciferase reporter signal reduction – luminescence, H4-C neuroglioblastoma cells, dose response (AID 2458); assay type: functional, cell-based;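 also: H4 neuroglioblastoma cells stably carrying a luciferase reporter gene fusion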
[7] = DRD fibroblast viability loss – cell-based, non-viral oncogenic, luminescence, dose response (AID 1934); assay type: functional; settings: Homo sapiens
BJ [8] = assay: BJ-TERT-LT-ST fibroblast viability loss – cell-based, RAS-independent, luminescence, dose response (AID 1935); assay type: functional; settings: Homo sapiens;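 also: BJ fibroblasts immortalized with TERT plus LT and ST oncogenes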
[9] = luciferase reporter signal suppression in cells – H4 neuroglioma cells, luminescence, dose response (AID 1990); assay type: functional, cell-based
BJ [10] = assay: BJ-TERT fibroblast viability loss – cell-based, RAS-independent, luminescence, dose response (AID 1933); assay type: functional; settings: Homo sapiens
Aspartyl aminopeptidase = Aspartyl aminopeptidase (Plasmodium falciparum 3D7, UniProt Q8I2J3); assay: Counterscreen for inhibitors of M1 and M17 aminopeptidases: QFRET-based biochemical high throughput dose response assay for inhibitors of the Plasmodium falciparum M18 Aspartyl Aminopeptidase (PFM18AAP). [Related PubChem assays: 1619 (Screening assay (M17LAP inhibitors).), 1445 (Screening assay (M1AAP inhibitors).)]
Procathepsin L = Procathepsin L (Homo sapiens, UniProt P07711); assay: CTSL1 protease inhibition – biochemical, QFRET, 1536-well, counter-screen for M1/M17 aminopeptidase inhibitor project, dose response (AID 2214)
Leucine aminopeptidase = target: T1, Leucine aminopeptidase (Plasmodium falciparum 3D7, UniProt Q8IL11); assay: P. falciparum M17LAP inhibitors, primary screen, biochemical, fluorogenic H-Leu-NHMec substrate, 1536-well (AID 1619); assay type: functional
T1 sequence (Q8IL11 whole entry): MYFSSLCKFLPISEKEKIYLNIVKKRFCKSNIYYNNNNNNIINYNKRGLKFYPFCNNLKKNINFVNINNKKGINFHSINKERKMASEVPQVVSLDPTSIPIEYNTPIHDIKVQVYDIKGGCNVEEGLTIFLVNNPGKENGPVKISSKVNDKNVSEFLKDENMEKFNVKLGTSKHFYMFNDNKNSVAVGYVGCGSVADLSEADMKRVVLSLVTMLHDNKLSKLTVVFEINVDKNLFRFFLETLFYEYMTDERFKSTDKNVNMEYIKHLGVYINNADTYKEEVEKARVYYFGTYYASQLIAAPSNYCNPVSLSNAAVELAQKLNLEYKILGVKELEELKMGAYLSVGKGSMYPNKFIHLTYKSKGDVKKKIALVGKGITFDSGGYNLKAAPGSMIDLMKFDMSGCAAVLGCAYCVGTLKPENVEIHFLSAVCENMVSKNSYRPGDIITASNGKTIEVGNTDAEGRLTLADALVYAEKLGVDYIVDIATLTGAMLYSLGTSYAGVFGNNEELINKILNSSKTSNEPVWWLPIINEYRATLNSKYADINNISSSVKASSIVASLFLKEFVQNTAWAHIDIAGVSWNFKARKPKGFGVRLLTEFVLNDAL

[11] = A Cell Based Secondary Assay To Explore Cytotoxicity of Compounds that Sensitize Mycobacterium Tuberculosis to Beta-Lactam Antibiotics.; assay type: functional
Aminopeptidase N = target: T2, Aminopeptidase N (Plasmodium falciparum FcB1/Columbia, UniProt O96935); assay: malaria alanyl aminopeptidase activity blockers – biochemical, fluorogenic H-Leu-NHMec substrate, 1536-well (AID 1445); parameters: species or system Plasmodium falciparum 3D7, 3D7
T2 sequence (O96935 whole entry): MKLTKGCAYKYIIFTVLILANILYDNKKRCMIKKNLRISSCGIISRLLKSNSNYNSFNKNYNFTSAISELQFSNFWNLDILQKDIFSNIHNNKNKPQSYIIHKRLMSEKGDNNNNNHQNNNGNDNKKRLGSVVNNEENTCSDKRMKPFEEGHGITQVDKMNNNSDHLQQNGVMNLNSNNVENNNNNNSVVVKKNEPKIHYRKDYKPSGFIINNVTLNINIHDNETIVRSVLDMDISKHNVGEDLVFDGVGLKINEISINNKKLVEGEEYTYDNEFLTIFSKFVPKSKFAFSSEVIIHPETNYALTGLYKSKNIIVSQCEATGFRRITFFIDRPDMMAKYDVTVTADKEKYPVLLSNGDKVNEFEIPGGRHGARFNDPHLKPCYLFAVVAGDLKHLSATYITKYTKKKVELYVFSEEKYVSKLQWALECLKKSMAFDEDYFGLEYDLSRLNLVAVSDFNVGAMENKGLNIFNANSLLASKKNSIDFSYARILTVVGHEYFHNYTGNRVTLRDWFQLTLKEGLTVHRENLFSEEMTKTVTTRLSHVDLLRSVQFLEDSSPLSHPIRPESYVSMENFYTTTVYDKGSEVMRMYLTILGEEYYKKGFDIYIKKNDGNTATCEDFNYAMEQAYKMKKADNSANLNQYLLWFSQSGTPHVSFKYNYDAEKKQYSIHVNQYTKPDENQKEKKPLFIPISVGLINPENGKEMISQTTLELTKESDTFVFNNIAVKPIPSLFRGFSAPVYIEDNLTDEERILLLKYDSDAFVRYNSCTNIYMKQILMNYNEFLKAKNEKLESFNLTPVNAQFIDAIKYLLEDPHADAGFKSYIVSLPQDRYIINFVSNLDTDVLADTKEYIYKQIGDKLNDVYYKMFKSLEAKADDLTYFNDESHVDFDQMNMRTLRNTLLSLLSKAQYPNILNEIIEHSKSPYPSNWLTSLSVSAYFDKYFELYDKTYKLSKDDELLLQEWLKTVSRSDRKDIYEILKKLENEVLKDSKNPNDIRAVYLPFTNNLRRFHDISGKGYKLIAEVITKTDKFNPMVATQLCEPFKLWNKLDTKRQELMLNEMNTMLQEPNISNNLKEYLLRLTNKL

[12] = A549 cell cytotoxicity, dose response, cytotoxicity control, plate reader, cherry-pick, antagonist series (AID 743412); assay type: functional, cell-based
[13] = target: Peroxisome proliferator-activated receptor gamma/Nuclear receptor coactivator 2 (Homo sapiens, UniProt P37231); assay: (§1) TR-FRET dose response biochemical High Throughput Screening assay for agonists of the steroid receptor coactivator 2 (SRC-2) recruitment by the peroxisome proliferator-activated receptor gamma (PPAR gamma): non-selective agonists. [Related pubchem assays: 1297, 1032 ]; assay type: functional
[14] = blockers of bursicon-stimulated LGR2 cAMP reporter – cell-based, HEK293, CRE-luciferase reporter, cherry pick, set 2, dose response (AID 743343); assay type: functional;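 also: transfected cells were stimulated with diluted bursicon conditioned medium after compound addition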
[15] = blockade of melanocortin 4 receptor signaling – cell-based, plate reader, cherry pick, counter-screen for LGR2 antagonist project, dose response (AID 743444); assay type: functional;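 also: transfected HEK 293 cells stimulated with alpha-MSH peptide; potency of inhibitors of the alpha-MSH evoked signal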
[16] = target: Peroxisome proliferator-activated receptor gamma/Nuclear receptor coactivator 1 (Homo sapiens, UniProt P37231); assay: as §1, with “1 (SRC-1)” for “2 (SRC-2)”, “assays (depositor defined):AID1300, AID1808, AID504735, AID631]” for “assays: 1297, 1032 ]”; assay type: protein assay
[17] = target: Peroxisome proliferator-activated receptor gamma/Nuclear receptor coactivator 3 (Homo sapiens, UniProt P37231); assay: as §1, with “3 (SRC-3)” for “2 (SRC-2)”, “1301 (Confirmation screen.), 1048 (Primary screen.)]” for “1297, 1032 ]”; assay type: functional
[18] = target: Melanin-concentrating hormone receptor 1 (Homo sapiens, UniProt Q99705); assay: Late-stage fluorescence-based counterscreen for antagonists of the G-protein coupled receptor 7 (GPR7): cell-based dose response assay to identify antagonists of the melanin-concentrating hormone receptor 1 (MCHR1). [Related pubchem assays (depositor defined):AID1861, AID1880, AID1952, AID2148, AID2251, AID2257, AID485339]; assay type: functional;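 also: stimulated with 30 nM MCH peptide agonist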
HeLa = assay: viability loss in HeLa cells – cell-based, 24 h, cherry-picked samples, cytotoxicity control, dose response (AID 504726); assay type: functional; settings: Homo sapiens;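 also: potency for cytotoxicity as loss of luminescence signal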
[19] = NIH3T3 cell viability loss – ATP luminescence, mouse fibroblasts, counter-screen, dose response (AID 2010); assay type: functional, cell-based;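 also: cells exposed to compound for about 90 hours before reading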
[20] = Trypanosoma cruzi growth suppression in host cells – NIH3T3 host cells, beta-gal luminescence, confirmation (AID 2044); assay type: functional, cell-based;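 also: intracellular parasites grown in NIH/3T3 mouse fibroblasts as host cells; luminescent beta-galactosidase reporter signal from transgenic T. cruzi replicating inside host cells; inhibitors lower the luminescence signal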
[21] = target: Acyl-homoserine lactone acylase PvdQ (Pseudomonas aeruginosa (strain LESB58), UniProt Q9I194); assay: PvdQ acylase enzyme activity blockers – biochemical, fluorescence, plate reader and imaging, cherry-picks, dose response (AID 493231)
[22] = target: T3, Eukaryotic translation initiation factor 2-alpha kinase 3 (Homo sapiens, UniProt Q9NZJ5); assay: Counterscreen assay for PERK inhibitors: Dose response cell-based high throughput screening assay to measure inhibition of PERK at 6 hours. [Related pubchem assays: 1522, 1416 ]; assay type: functional
T3 sequence (Q9NZJ5 whole entry): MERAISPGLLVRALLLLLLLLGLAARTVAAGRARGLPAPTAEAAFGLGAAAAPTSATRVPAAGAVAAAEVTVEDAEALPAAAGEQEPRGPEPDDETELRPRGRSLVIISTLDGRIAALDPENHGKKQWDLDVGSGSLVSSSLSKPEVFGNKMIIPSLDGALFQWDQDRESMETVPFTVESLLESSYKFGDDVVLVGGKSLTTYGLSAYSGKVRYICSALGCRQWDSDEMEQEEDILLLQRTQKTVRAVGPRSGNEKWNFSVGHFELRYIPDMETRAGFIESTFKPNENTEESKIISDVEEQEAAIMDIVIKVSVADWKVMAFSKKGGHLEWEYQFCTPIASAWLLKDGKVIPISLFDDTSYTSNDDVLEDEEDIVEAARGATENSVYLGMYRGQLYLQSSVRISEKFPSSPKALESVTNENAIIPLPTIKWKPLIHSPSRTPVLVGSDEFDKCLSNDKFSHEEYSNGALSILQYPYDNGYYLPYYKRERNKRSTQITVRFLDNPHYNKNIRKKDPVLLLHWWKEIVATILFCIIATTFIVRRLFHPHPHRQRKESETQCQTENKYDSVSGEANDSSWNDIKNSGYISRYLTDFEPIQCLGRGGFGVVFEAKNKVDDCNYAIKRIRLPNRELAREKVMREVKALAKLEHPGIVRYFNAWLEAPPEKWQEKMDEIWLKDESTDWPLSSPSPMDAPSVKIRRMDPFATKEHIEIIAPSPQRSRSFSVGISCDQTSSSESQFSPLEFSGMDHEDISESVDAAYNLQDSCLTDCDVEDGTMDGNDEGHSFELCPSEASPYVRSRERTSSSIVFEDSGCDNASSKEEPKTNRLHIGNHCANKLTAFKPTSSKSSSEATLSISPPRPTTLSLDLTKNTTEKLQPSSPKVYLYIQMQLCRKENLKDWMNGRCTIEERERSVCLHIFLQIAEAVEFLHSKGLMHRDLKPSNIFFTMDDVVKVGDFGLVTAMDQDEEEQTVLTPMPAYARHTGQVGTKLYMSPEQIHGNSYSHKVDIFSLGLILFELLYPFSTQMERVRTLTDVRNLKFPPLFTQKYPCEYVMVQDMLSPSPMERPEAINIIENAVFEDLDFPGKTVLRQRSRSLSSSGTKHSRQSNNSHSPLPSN

[23] = target: T3, Eukaryotic translation initiation factor 2-alpha kinase 3; assay: Dose response cell-based high-throughput screening assay to measure PERK inhibition. [Related pubchem assays: 1416 ]; assay type: functional
[24] = A High Throughput Confirmatory Assay used to Identify Novel Compounds that Inhibit Mycobacterium Tuberculosis in the absence of Glycerol.; assay type: functional

Acyl-homoserine lactone acylase PvdQ, sequence (Q9I194 24-193 limits assumed): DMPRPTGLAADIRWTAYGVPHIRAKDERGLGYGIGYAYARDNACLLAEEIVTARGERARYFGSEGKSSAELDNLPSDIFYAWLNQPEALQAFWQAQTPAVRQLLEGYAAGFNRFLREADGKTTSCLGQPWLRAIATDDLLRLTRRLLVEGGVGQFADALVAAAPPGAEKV
Acyl-homoserine lactone acylase PvdQ, sequence (Q9I194 217-762 limits assumed): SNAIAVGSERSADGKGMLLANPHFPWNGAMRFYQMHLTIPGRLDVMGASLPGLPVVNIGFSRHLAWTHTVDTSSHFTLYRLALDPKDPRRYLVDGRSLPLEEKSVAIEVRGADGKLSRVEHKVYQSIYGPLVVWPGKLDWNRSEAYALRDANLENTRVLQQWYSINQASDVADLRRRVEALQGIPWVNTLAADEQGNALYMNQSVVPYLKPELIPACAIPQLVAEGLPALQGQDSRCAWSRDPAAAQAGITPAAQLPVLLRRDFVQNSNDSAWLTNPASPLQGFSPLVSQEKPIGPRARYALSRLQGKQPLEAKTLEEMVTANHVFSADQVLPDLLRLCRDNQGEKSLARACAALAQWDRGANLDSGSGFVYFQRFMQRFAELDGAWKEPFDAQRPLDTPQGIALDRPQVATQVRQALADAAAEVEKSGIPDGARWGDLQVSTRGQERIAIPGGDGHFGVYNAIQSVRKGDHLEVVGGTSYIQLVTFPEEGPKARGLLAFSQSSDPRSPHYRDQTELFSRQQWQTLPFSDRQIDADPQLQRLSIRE
Procathepsin L, sequence (P07711 whole entry): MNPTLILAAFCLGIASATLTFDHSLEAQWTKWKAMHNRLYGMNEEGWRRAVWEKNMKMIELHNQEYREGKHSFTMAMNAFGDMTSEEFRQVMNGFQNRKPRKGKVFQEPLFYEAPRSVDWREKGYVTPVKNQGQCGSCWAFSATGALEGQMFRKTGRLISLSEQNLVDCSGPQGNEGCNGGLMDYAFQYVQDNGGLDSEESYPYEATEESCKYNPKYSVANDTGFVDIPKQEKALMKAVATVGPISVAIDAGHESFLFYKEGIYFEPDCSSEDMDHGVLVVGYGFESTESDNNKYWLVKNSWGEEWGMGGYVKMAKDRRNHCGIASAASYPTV
Aspartyl aminopeptidase, sequence (Q8I2J3 whole entry): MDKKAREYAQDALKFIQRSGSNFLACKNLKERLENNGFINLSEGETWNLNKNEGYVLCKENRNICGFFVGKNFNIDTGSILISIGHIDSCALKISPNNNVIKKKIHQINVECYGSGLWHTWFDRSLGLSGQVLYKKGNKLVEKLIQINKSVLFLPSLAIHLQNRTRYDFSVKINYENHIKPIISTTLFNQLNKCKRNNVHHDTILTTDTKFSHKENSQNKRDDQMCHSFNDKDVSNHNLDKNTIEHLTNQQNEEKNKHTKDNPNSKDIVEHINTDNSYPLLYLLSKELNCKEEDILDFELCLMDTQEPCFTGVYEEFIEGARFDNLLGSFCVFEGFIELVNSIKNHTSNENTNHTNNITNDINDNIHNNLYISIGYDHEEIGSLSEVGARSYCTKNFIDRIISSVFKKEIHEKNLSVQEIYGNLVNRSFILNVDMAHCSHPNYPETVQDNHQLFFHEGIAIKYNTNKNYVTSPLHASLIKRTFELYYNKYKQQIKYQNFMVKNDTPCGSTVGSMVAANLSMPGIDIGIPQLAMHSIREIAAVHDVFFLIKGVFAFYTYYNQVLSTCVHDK
Peroxisome proliferator-activated receptor gamma/Nuclear receptor coactivator 1, sequence (P37231 whole entry): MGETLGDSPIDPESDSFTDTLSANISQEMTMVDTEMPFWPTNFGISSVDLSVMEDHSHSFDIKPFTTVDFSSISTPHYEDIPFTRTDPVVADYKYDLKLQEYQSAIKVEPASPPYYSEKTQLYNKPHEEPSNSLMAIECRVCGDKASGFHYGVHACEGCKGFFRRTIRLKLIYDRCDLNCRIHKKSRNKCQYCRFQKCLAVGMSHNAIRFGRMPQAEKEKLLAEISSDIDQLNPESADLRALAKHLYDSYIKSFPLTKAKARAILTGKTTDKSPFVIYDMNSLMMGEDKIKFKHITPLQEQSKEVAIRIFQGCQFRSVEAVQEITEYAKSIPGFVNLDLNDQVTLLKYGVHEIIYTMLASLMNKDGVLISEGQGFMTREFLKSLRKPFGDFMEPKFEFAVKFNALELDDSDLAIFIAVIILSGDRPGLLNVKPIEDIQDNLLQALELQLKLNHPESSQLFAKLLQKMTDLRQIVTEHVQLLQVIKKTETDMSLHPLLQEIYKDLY
Peroxisome proliferator-activated receptor gamma/Nuclear receptor coactivator 1, sequence (Q15788 whole entry, further chain): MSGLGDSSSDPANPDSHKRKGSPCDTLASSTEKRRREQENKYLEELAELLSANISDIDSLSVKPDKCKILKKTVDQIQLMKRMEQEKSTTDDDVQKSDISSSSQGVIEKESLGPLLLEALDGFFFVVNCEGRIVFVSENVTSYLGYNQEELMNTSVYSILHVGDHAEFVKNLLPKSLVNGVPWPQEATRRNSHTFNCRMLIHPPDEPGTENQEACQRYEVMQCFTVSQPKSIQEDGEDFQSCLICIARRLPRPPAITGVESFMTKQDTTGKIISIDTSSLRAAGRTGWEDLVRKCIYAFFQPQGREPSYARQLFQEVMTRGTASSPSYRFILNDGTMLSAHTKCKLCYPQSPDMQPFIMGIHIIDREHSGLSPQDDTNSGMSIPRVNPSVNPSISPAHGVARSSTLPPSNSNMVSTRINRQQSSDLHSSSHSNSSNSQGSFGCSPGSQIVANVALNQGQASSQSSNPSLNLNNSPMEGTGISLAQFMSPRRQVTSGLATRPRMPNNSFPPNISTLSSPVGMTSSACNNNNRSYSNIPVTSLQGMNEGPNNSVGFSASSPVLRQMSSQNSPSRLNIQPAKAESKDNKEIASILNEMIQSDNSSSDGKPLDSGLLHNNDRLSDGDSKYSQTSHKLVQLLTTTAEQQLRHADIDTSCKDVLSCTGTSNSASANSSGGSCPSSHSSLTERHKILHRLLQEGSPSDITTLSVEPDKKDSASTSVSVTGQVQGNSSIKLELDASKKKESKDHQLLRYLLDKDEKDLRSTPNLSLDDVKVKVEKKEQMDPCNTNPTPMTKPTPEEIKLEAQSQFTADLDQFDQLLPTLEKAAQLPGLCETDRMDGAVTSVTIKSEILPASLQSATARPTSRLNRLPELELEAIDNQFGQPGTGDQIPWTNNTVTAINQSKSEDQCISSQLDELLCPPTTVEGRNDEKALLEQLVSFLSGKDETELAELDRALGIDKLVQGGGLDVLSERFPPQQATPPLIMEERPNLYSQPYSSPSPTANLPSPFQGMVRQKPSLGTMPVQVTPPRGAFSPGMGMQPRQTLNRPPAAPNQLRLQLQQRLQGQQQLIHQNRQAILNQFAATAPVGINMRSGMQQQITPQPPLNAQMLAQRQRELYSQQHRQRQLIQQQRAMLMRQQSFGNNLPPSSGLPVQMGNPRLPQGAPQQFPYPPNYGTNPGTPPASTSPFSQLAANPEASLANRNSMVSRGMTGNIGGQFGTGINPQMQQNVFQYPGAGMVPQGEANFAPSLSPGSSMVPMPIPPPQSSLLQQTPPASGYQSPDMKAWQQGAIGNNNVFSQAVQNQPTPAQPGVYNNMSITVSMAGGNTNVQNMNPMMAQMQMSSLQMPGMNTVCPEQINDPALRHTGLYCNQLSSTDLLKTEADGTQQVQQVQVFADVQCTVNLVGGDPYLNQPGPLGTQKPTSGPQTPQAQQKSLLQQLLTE
Melanin-concentrating hormone receptor 1, sequence (Q99705 whole entry): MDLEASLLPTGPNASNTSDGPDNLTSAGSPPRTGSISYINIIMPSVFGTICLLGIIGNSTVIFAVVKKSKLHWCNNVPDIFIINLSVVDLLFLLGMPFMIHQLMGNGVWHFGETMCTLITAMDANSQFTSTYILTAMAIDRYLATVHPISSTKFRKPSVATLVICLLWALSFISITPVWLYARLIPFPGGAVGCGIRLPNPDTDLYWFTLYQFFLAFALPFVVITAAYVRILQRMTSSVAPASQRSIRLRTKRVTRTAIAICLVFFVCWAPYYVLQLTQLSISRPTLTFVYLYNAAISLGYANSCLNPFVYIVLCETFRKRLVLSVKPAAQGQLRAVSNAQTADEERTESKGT

O=C(N/N=C/c1cccs1)c1cc(-c2ccncc2)nc2ccccc12
EC50 [1]: < 0.1 µM (active)
EC50 [2]: 0.294 µM (active)
EC50 (BJ [3]): 0.712 µM (active)
EC50 (BJ [4]): 0.24 µM (active)
EC50 (cells): 2.19 µM (active)
EC50 [5]: > 12 µM (inconclusive)
EC50 [6]: > 12 µM (inconclusive)
EC50 [7]: 0.463 µM (active)
EC50 (BJ [8]): 0.671 µM (active)
EC50 [9]: 4.61 µM (active)
EC50 (BJ [10]): 0.602 µM (active)

O=C(CSc1nc2c(c(=O)[nH]1)CN(Cc1ccc(F)cc1)CC2)Nc1ccc(F)cc1
IC50 (Aspartyl aminopeptidase): > 73.5 µM (not active)
IC50 (Procathepsin L): > 59.6 µM (not active)
IC50 (Leucine aminopeptidase): 7.8 µM (active)

O=c1c2cc(Cl)ccc2[nH]c(=S)n1Cc1cccs1
CC50 [11]: > 40 µM (active)

CCCS(=O)(=O)N1CCC(C(=O)NCc2ccc3c(c2)OCO3)CC1
IC50 (Aspartyl aminopeptidase): > 73.5 µM (not active)
IC50 (Procathepsin L): > 59.6 µM (not active)
IC50 (Aminopeptidase N): 13.1 µM (active)

O=C(c1ccccc1)N1CCSc2sccc2C1=O
AC50 [12]: > 52 µM (inactive)
EC50 [2]: < 0.1 µM (active)
EC50 [13]: 15.8 µM (not active)
AC50 [14]: 4 µM (active)
EC50 (cells): 7.25 µM (active)
AC50 [15]: 3.77 µM (active)
EC50 [16]: 18.9 µM (inactive)
EC50 [17]: > 79.4 µM (not active)
EC50 [5]: 1.08 µM (active)
EC50 [6]: 0.896 µM (active)
EC50 [9]: 7.87 µM (active)

COc1ccc(Oc2c(Cl)cnn(-c3ccc(C4CC4)cc3)c2=O)cc1
IC50 [18]: 6.8 µM (active)

Cc1ccc(-c2nnn(CC(=O)NC3CCN(Cc4ccccc4)CC3)n2)cc1
AC50 (HeLa): 276 µM (active)
EC50 [19]: > 60 µM (not active)
EC50 [20]: 0.141 µM (active)

N#CCn1c(C2CCCCC2)nc2ccccc2c1=O
AC50 [21]: 13.1 µM (active)

CCOC(=O)c1cnc(-c2ccccc2)nc1N
AC50 [21]: 11.6 µM (active)

O=C1c2ccncc2C(=O)N1c1cccc(Cl)c1
EC50 [22]: > 55.7 µM (not active)
EC50 [23]: > 55.7 µM (not active)

Cc1nn(-c2ccccc2)c(Cl)c1C(=O)Nc1nnc(C2CCCCC2)s1
IC50 [24]: > 50 µM (active)

O=C(NNC(=O)C1CCCN(S(=O)(=O)c2ccc3ccccc3c2)C1)C1CC1 (stereo unspecified)
EC50 [22]: > 55.7 µM (not active)
EC50 [23]: 23.2 µM (not active)

O=C1C=C2C=C[C@@H]3CC2(O1)[C@H]1CCCCN31
CC50 [11]: 39.4 µM (active)
